The results in this text go back to the supplement of paper PMC10307832.

Test in all cases: relative viability (nuclei count vs DMSO), 5 days (fraction); higher = more cells survive
Compound in test [1]: O=C(Nc1c[nH]nc1-c1nc2ccc(CN3CCOCC3)cc2[nH]1)NC1CC1 [AT9283] + C[C@@H](Oc1cc(-c2cnn(C3CCNCC3)c2)cnc1N)c1c(Cl)ccc(F)c1Cl [Crizotinib] (partner 1 µM)
A digest of the protocol:
(§1)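 Lung cancer cell lines were seeded in 1536-well plates and dosed by pin tool the next day, with either a single drug or a fixed anchor-drug dose combined with five library-drug doses (not always all listed) spaced in √10 steps. Five days later, one step fixed the cells and stained their nuclei (final 0.05% Triton X-100, 1% formaldehyde, 1 ug/ml Hoechst), and nuclei were counted on 4× images. Relative viability is the nuclei count in treated wells divided by the count in vehicle wells, and each value is the median of duplicate plates.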

Compound in test [2]: C#Cc1cccc(Nc2ncnc3cc(OCCOC)c(OCCOC)cc23)c1 [Erlotinib] + O=C(c1cc(Cc2n[nH]c(=O)c3ccccc23)ccc1F)N1CCN(C(=O)C2CC2)CC1 [Olaparib] (partner 8 µM)
A digest of the protocol:
as §1

Compound in test [3]: O=C(Nc1c[nH]nc1-c1nc2ccc(CN3CCOCC3)cc2[nH]1)NC1CC1 [AT9283] + Nc1nc2[nH]cc(CCc3ccc(C(=O)N[C@@H](CCC(=O)O)C(=O)O)cc3)c2c(=O)[nH]1 [Pemetrexed] (partner 0.2 µM)
In outline: as §1

Compound in test [4]: O=C(Nc1c[nH]nc1-c1nc2ccc(CN3CCOCC3)cc2[nH]1)NC1CC1 [AT9283] + Cc1cc(Nc2cc(N3CCN(C)CC3)nc(Sc3ccc(NC(=O)C4CC4)cc3)n2)n[nH]1 [Tozasertib] (partner 0.1 µM)
In outline:
as §1

Compound in test [5]: C#Cc1cccc(Nc2ncnc3cc(OCCOC)c(OCCOC)cc23)c1 [Erlotinib] + C[C@@H](Oc1cc(-c2cnn(C3CCNCC3)c2)cnc1N)c1c(Cl)ccc(F)c1Cl [Crizotinib] (partner 1 µM)
A digest of the protocol: as §1

On to NCI-H441, for which the relative viability in test [1] (first compound 0.003 µM) was 0.614; in test [1] (first compound 0.03 µM), 0.635; in test [1] (first compound 0.09487 µM), 0.35; in test [1] (first compound 0.3 µM), 0.234; in test [2] (first compound 0.02 µM) it was 0.626; in test [2] (first compound 0.2 µM) it was 0.54. Besides, the relative viability in test [2] (first compound 0.6325 µM) came to 0.534; in test [2] (first compound 2 µM) it was 0.495; in test [3] (first compound 0.003 µM), 0.228; in test [3] (first compound 0.03 µM), 0.274; in test [3] (first compound 0.09487 µM), 0.25; in test [3] (first compound 0.3 µM) it was 0.238. The relative viability is 0.707 in test [4] (first compound 0.003 µM); 0.715 in test [4] (first compound 0.03 µM); 0.361 in test [4] (first compound 0.09487 µM); 0.31 in test [4] (first compound 0.3 µM); 0.831 in test [5] (first compound 0.02 µM); 0.751 in test [5] (first compound 0.2 µM). Moreover, the figures for the relative viability in test [5] (first compound 0.6325 µM) and in test [5] (first compound 2 µM) were 0.772 and 0.677, respectively.
